Results from US12398107B2, “Fungicidal nitroanilino substituted pyrazoles” (FMC Corporation, priority 2018, dated 2025).

Columns and labels:
Type in all cases: in vivo
Septoria tritici = assay: Test A: wheat leaf blotch, preventive spray on wheat seedlings; settings: 100 = 100% disease control, 0 = no control relative to controls
Text: (§1) General protocol for preparing test suspensions for Tests A-F: the test compounds were first dissolved in acetone in an amount equal to 3% of the final volume and then suspended at the desired concentration (in ppm) in acetone and purified water (50/50 mix by volume) containing 250 ppm of the surfactant PEG400 (polyhydric alcohol esters). The resulting test suspensions were then used in Tests A-F. The test solution was sprayed to the point of run-off on wheat seedlings. The following day the seedlings were inoculated with a spore suspension of Septoria tritici (the causal agent of wheat leaf blotch) and incubated in a saturated atmosphere at 24° C. for 48 h, and then moved to a growth chamber at 20° C. for 17 days, after which time disease ratings were made. A rating of 100 indicates 100% disease control and a rating of 0 indicates no disease control (relative to the controls). A dash (-) indicates the compound was not tested.

[1] = tested on: Puccinia recondita f. sp. tritici; assay: Test B: wheat leaf rust, preventive spray on wheat seedlings; settings: 100 = 100% disease control, 0 = no control relative to controls
Text: as §1, with “Puccinia recondita f. sp.” for “Septoria”, “rust)” for “blotch)”, “20°” for “24°”, “24” for “48”, “7” for “17”

Botrytis cinerea = assay: Test E: tomato Botrytis, preventive spray on tomato seedlings; settings: 100 = 100% disease control, 0 = no control
Text: (§2) General protocol for preparing test suspensions for Tests A-F: the test compounds were first dissolved in acetone in an amount equal to 3% of the final volume and then suspended at the desired concentration (in ppm) in acetone and purified water (50/50 mix by volume) containing 250 ppm of the surfactant PEG400 (polyhydric alcohol esters). The resulting test suspensions were then used in Tests A-F. The test suspension was sprayed to the point of run-off on tomato seedlings. The following day the seedlings were inoculated with a spore suspension of Botrytis cinerea (the causal agent of tomato Botrytis) and incubated in a saturated atmosphere at 20° C. for 48 h, and then moved to a growth chamber at 24° C. for 3 days, after which time visual disease ratings were made. A rating of 100 indicates 100% disease control and a rating of 0 indicates no disease control (relative to the controls). A dash (-) indicates the compound was not tested.

Phakopsora pachyrhizi = assay: Test D: Asian soybean rust, preventive spray on soybean seedlings; settings: 100 = 100% disease control, 0 = no control
Text: General protocol for preparing test suspensions for Tests A-F: the test compounds were first dissolved in acetone in an amount equal to 3% of the final volume and then suspended at the desired concentration (in ppm) in acetone and purified water (50/50 mix by volume) containing 250 ppm of the surfactant PEG400 (polyhydric alcohol esters). The resulting test suspensions were then used in Tests A-F.
The test solution was sprayed to the point of run-off on soybean seedlings. The following day the seedlings were inoculated with a spore suspension of Phakopsora pachyrhizi (the causal agent of Asian soybean rust) and incubated in a saturated atmosphere at 22° C. for 24 h and then moved to a growth chamber at 22° C. for 8 days, after which time visual disease ratings were made.
A rating of 100 indicates 100% disease control and a rating of 0 indicates no disease control (relative to the controls). A dash (-) indicates the compound was not tested.

Alternaria solani = assay: Test F: tomato early blight, preventive spray on tomato seedlings; settings: 100 = 100% disease control, 0 = no control
Text: as §2, with “Alternaria solani” for “Botrytis cinerea”, “early blight)” for “Botrytis)”, “27°” for “20°”, “20°” for “24°”

[2] = tested on: Blumeria graminis f. sp. tritici; assay: Test C: wheat powdery mildew, preventive spray on wheat seedlings; settings: rated after 8 days, 100 = 100% disease control, 0 = no control
Text: as §2, with “on wheat” for “on tomato”, “spore dust” for “spore suspension”, “of Blumeria graminis f. sp. tritici, (also known as Erysiphe graminis f. sp. tritici, the” for “of Botrytis cinerea (the”, “of wheat powdery mildew)” for “of tomato Botrytis)”, “a growth chamber” for “a saturated atmosphere”, “for 8” for “for 48 h, and then moved to a growth chamber at 24° C. for 3”

Row | SMILES | Test A disease control rating (wheat leaf blotch) (Septoria tritici; 50 ppm) | Test B disease control rating (wheat leaf rust) ([1]; 50 ppm) | Test E disease control rating (tomato Botrytis) (Botrytis cinerea; 50 ppm) | Test D disease control rating (Asian soybean rust) (Phakopsora pachyrhizi; 50 ppm) | Test F disease control rating (tomato early blight) (Alternaria solani; 50 ppm) | Test C disease control rating (wheat powdery mildew) ([2]; 50 ppm) | other results
1 | COc1ccc(-c2c(C)nn(C)c2Nc2c(F)cc(Br)cc2[N+](=O)[O-])c(Cl)c1 [Compound 182] | 100% | 99% | 100% | 0% | 99% | 76% | 
2 | Cc1cc(Cl)c(Nc2c(-c3ccc(C#N)cc3Cl)c(C)nn2C)c([N+](=O)[O-])c1 [Compound 156] | 91% | 91% | 0% | 0% | 0% | 66% | 
3 | Cc1nn(C)c(Nc2c(F)cccc2[N+](=O)[O-])c1-c1c(F)cccc1F [Compound 63] | 100% | 99% | 100% | 0% | 96% | 86% | 
4 | COc1ccc(-c2c(C)nn(C)c2Nc2ccc(Cl)cc2[N+](=O)[O-])c(Cl)c1 [Compound 74] | 99% | 86% | 99% | 74% | 85% | 81% | 
5 | CCc1nn(C)c(Nc2c(F)cc(C)cc2[N+](=O)[O-])c1-c1ccc(F)cc1Cl [Compound 137] | 100% | 100% | 99% | 91% | 99% | 100% | 
6 | CCc1nn(C)c(Nc2c(F)cccc2[N+](=O)[O-])c1-c1ccc(F)cc1Cl [Compound 72, 4-(2-chloro-4-fluorophenyl)-N-(2-fluoro-6-nitrophenyl)-3-ethyl-1-methyl-1H-pyrazol-5-amine] |  |  |  |  |  |  | pest or weed control at 10 ppm (Septoria tritici; Zymoseptoria tritici, 10 ppm, read-out: Test A disease control rating (wheat leaf blotch)): 100%; pest or weed control at 50 ppm (Septoria tritici; Zymoseptoria tritici, 50 ppm, read-out: Test A disease control rating (wheat leaf blotch)): 100%; pest or weed control at 10 ppm ([1]; 10 ppm, read-out: Test B disease control rating (wheat leaf rust)): 85%; pest or weed control at 50 ppm ([1]; 50 ppm, read-out: Test B disease control rating (wheat leaf rust)): 100%; pest or weed control at 10 ppm (Botrytis cinerea; Botrytis cinerea, 10 ppm, read-out: Test E disease control rating (tomato Botrytis)): 98%; pest or weed control at 50 ppm (Botrytis cinerea; Botrytis cinerea, 50 ppm, read-out: Test E disease control rating (tomato Botrytis)): 98%; pest or weed control at 10 ppm (Phakopsora pachyrhizi; Phakopsora pachyrhizi, 10 ppm, read-out: Test D disease control rating (Asian soybean rust)): 12%; pest or weed control at 50 ppm (Phakopsora pachyrhizi; Phakopsora pachyrhizi, 50 ppm, read-out: Test D disease control rating (Asian soybean rust)): 31%; pest or weed control at 10 ppm (Alternaria solani; Alternaria solani, 10 ppm, read-out: Test F disease control rating (tomato early blight)): 63%; pest or weed control at 50 ppm (Alternaria solani; Alternaria solani, 50 ppm, read-out: Test F disease control rating (tomato early blight)): 99%; pest or weed control at 10 ppm ([2]; Blumeria graminis, 192 h, 10 ppm, read-out: Test C disease control rating (wheat powdery mildew)): 81%; pest or weed control at 50 ppm ([2]; Blumeria graminis, 192 h, 50 ppm, read-out: Test C disease control rating (wheat powdery mildew)): 99%
7 | Cc1cccc([N+](=O)[O-])c1Nc1c(-c2c(F)cc(F)cc2Cl)c(C)nn1C [Compound 153] | 99% | 100% | 99% | 73% | 72% | 99% | 
8 | COc1ccc(Nc2c(-c3ccc(F)cc3F)c(C)nn2C)c([N+](=O)[O-])c1 [Compound 88] |  | 97% | 99% | 0% | 9% | 84% | 
9 | Cc1ccc(Nc2c(-c3ccc(F)cc3F)c(C)nn2C)c([N+](=O)[O-])c1 [Compound 107] |  | 91% | 98% | 0% | 0% | 61% | 
10 | COc1ccc(Nc2c(-c3c(F)cc(F)cc3Cl)c(C)nn2C)c([N+](=O)[O-])c1 [Compound 89] |  | 100% | 99% | 80% | 99% | 99% | 
11 | COc1ccc(Nc2c(-c3c(F)cccc3F)c(C)nn2C)c([N+](=O)[O-])c1 [Compound 87] |  | 99% | 98% | 0% | 93% | 98% | 
12 | Cc1ccc(Nc2c(-c3c(F)cc(F)cc3Cl)c(C)nn2C)c([N+](=O)[O-])c1 [Compound 106] |  | 100% | 99% | 0% | 68% | 98% | 
13 | CCc1ccc(Nc2c(-c3ccc(F)cc3Cl)c(C)nn2C)c([N+](=O)[O-])c1 [Compound 6] |  | 74% | 55% | 0% | 0% | 27% | 
14 | COCc1ccc(Nc2c(-c3ccc(F)cc3Cl)c(C)nn2C)c([N+](=O)[O-])c1 [Compound 4] |  | 86% | 74% | 0% | 0% | 76% | 
